Assay results: patent US20240285583A1, “PHARMACEUTICAL COMPOSITION COMPRISING 1-(3-CYANO-1-ISOPROPYL-INDOL-5-YL)PYRAZOLE-4-CARBOXYLIC ACID” (LG CHEM, LTD., priority 2021, published 2024)

Tests used:
gout patients = conditions: patient group receiving the drug, previous results; cited from earlier work
gout patient group [1] = assay: Phase 2 clinical trial (NCT03934099): analysis of TEAEs; type: in vivo, human
Procedure: (§1) A phase 2 clinical trial was conducted to analyze the dosage, TEAEs, and the like when the compound of Formula 1 (1-(3-cyano-1-isopropyl-indol-5-yl)pyrazol-4-carboxylic acid; compound of Example 1) is administered to a gout patient group.
Selected patients gave written informed consent according to institutional and study procedures. After screening and wash-out processes (days 26 to 33 pre-dose), a total of 156 patients were finally enrolled, and each patient was randomly assigned to 5 groups of 50 mg, 100 mg and 200 mg dosing groups of the compound of Example 1, a placebo group, and a febuxostat group. Patients in each group self-administered 1 tablet of a combination drug (colchicine, 0.6 mg/day) for the prevention of gout flare along with the assigned investigational drug (50 mg, 100 mg and 200 mg doses of the compound of Example 1, placebo, and 40 mg of febuxostat group) orally, once every morning, at about the same time each day, with water, regardless of food.
The drug was administered for 84 days by setting the first dosing day of the drug as day 1, and basic tests, blood uric acid concentration and the like were measured at clinic visits on 14 days (week 2), 28 days (week 4), 56 days (week 8), and 84 days (week 12) during the dosing period to determine whether TEAEs occurred. After the end of drug administration, a safety follow-up was performed for an additional 2 weeks (98 days, week 14).
Among all patient groups participating in the clinical trial, although the administration was stopped for 3 patients due to headache, gout flare in the left ankle, and liver dysfunction in the 100 mg dosing group of Example 1 and for 1 patient due to an increase in hepatic enzyme in the 200 mg dosing group, no significant treatment emergency adverse event (TEAE) was found in the remaining patient groups.

gout patient group [2] = assay: Phase 2 clinical trial (NCT03934099): blood uric acid concentration in gout patients; type: in vivo, human
Procedure: as §1
• 1. Written informed consent (signed and dated) provided voluntarily prior to the start of the study. • 2. Male or female aged from 18 to 75 • 3. History or experience of hyperuricemia and gout in accordance with the criteria of the American College of Rheumatology. • 4. Self-reported history of 2 or more gout flare within 12 months prior to screening visit (Visit 1). • 5. Blood uric acid (sUA) levels at Visit 1 of 6.0 mg/dL or more in subjects who were receiving urate lower therapy (ULT) with allopurinol, febuxostat, probenecid, or lesinurad; and SUA levels at Visit 1 of 8.0 mg/dL or more and 12.0 mg/dL or less in subjects who had no history of receiving the ULT or were not receiving the ULT at visit 1. • 6. SUA levels of 8.0 mg/dL or more and 12.0 mg/dL or less at Visit 3. • 7. Body mass index of 42 kg/m^2 or less at screening visit (Visit 1). • 8. Estimated glomerular filtration rate (eGFR) of 60 mL/min/1.73 m^2 or more at screening visit (Visit 1). • 9. Subjects of childbearing potential with a negative pregnancy test result at screening visit (Visit 1). […]

| SMILES | patients with a blood uric acid concentration of less than 6 mg/dL (gout patients) | incidence of TEAEs (gout patient group [1]; 50 mg, 100 mg and 200 mg groups, vs placebo and febuxostat groups) | patients for whom administration was stopped (gout patient group [1]; 100 mg dosing group, headache, gout flare in the left ankle, liver dysfunction) [patients] | patients for whom administration was stopped (gout patient group [1]; 200 mg dosing group, increase in hepatic enzyme) [patient] | adverse cardiovascular TEAEs (gout patient group [1]; all dosing groups) | blood uric acid lowering effect compared to febuxostat (gout patient group [2]; 50 mg, 100 mg, 200 mg vs febuxostat 40 mg) | blood uric acid concentration kept within the normal range during the dosing period (gout patient group [2]; doses of 50 mg, 100 mg and 200 mg, reached within 2 weeks) [mg/dL] |
| --- | --- | --- | --- | --- | --- | --- | --- |
| Oc1ncnc2[nH]ncc12 [allopurinol] | about 40% | – | – | – | – | – | – |
| CC(C)n1cc(C#N)c2cc(-n3cc(C(=O)O)cn3)ccc21 [Example 1, 1-(3-cyano-1-isopropyl-indol-5-yl)pyrazole-4-carboxylic acid] | – | did not show a significant difference in the incidence of TEAEs | 3 | 1 | no reports of adverse cardiovascular TEAEs having a causal relationship | equivalent or higher blood uric acid lowering effect | < 6.0 |
